Our source for the KD values is article PMC10360057 (2023).

The structures appear in SMILES notation.

In assay [1] the test system is RNA 1 (RNA, riboswitch) GGCUGCUUGUCCUUUAAUGGUCCAGUC
Description: ITC. The settings on record: K+ 100 mM (KCl), Mg2+ 2 mM (MgCl2); 50 mM MOPS, pH 7.5, 21 °C; two-site fit, site 1 of 2.

In assay [2] the test system is RNA 2 (RNA, riboswitch) CCGGCAUAGCUUGUCCUUUAAUGGUCCUAUGUCGAAAAUG
Description: ITC. The settings on record: K+ 100 mM (KCl), Mg2+ 2 mM (MgCl2); 50 mM MOPS, pH 7.5, 21 °C; two-site fit, site 1 of 2.

Assay [3] relates to RNA 1 (RNA, riboswitch) GGCUGCUUGUCCUUUAAUGGUCCAGUC
Description: native ESI MS. The settings on record: 9:1 H2O/CH3OH, 0.25 mM piperazine.

Assay [4] concerns RNA 2 (RNA, riboswitch) CCGGCAUAGCUUGUCCUUUAAUGGUCCUAUGUCGAAAAUG
Description: competitive native ESI MS. As to conditions: NH4+ 50 mM (ammonium bicarbonate); 9:1 H2O/CH3OH, 0.25 mM piperazine, pH ~7.5, 21 °C; RNA 1 as competing reference; overall, motifs A and B.

In assay [5] the test system is RNA 3 (RNA, riboswitch) CCGUCAUAGCUUGUCCUUUAAUGGUCCUAUGACGAAAAUG
As to the kind of experiment: competitive native ESI MS. As to conditions: NH4+ 50 mM (ammonium bicarbonate); 9:1 H2O/CH3OH, 0.25 mM piperazine, pH ~7.5, 21 °C; RNA 1 as competing reference; overall, motifs A and B.

Assay [6] has as its system RNA 4 (RNA, riboswitch) CCCUGAUAGCUUGUCCUUUAAUGGUCCUAUCUGGAAAAUG
As to the kind of experiment: competitive native ESI MS. As to conditions: NH4+ 50 mM (ammonium bicarbonate); 9:1 H2O/CH3OH, 0.25 mM piperazine, pH ~7.5, 21 °C; RNA 1 as competing reference; overall, motifs A and B.

By KD is commonly meant the equilibrium constant for the complex coming apart. A lower KD goes with higher affinity. Regarding `NC[C@@H]1O[C@H](O[C@H]2[C@@H](O)[C@H](O[C@@H]3[C@@H](O)[C@H](N)C[C@H](N)[C@H]3O[C@H]3O[C@H](CN)[C@@H](O)[C@H](O)[C@H]3N)O[C@@H]2CO)[C@H](N)[C@@H](O)[C@@H]1O`, the KD in assay [1] is 2 ± 2 nM; in assay [2] it was 400 ± 600 nM; in assay [3] (NH4+ 50 mM (ammonium bicarbonate), pH 7.5, 21 °C, single-site model) it was 700 ± 200 nM; in assay [4], 500 ± 200 nM; in assay [5], 500 ± 200 nM; in assay [6], 500 ± 200 nM.

With `NC[C@@H]1O[C@H](O[C@H]2[C@@H](O)[C@H](O[C@@H]3[C@@H](O)[C@H](N)C[C@H](N)[C@H]3O[C@H]3O[C@H](CO)[C@@H](O)[C@H](O)[C@H]3N)O[C@@H]2CO)[C@H](N)[C@@H](O)[C@@H]1O`, the dissociation constant KD in assay [3] (none added, pH ~6, room temperature, 1 μM RNA, 10 μM paromomycin) came to 4600 ± 1400 nM.
